Our source for the Ratio IC50 values is ChEMBL document CHEMBL1275282, “Synthesis, characterization, oxidative degradation, antibacterial activity and acetylcholinesterase/butyrylcholinesterase inhibitory effects of some new phosphorus(V) hydrazides” (Eur J Med Chem, 2010).

The target in the experiment is Cholinesterases; ACHE & BCHE (Homo sapiens) (UniProt P06276+P22303). As to the kind of experiment: Selectivity ratio of IC50 for human BChE over IC50 for human AChE by Ellman method.
Chain of Cholinesterases; ACHE & BCHE (Homo sapiens) (P06276 whole entry, looked up): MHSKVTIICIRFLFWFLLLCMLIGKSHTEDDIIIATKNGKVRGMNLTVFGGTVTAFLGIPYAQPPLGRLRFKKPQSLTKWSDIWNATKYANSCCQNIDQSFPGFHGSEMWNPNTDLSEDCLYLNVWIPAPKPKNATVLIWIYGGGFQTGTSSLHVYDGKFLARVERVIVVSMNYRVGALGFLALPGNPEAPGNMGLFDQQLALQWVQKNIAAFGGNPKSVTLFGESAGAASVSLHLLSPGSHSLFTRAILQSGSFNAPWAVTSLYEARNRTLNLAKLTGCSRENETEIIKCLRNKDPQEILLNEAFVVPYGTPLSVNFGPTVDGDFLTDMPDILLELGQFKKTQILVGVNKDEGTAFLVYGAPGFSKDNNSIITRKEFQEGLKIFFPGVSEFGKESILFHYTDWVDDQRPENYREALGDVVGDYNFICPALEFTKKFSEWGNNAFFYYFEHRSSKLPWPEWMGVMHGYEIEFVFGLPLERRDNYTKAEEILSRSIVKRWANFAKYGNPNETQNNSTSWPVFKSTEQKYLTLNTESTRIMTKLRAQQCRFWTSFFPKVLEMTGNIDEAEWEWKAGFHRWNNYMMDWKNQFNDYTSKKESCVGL
Chain of Cholinesterases; ACHE & BCHE (Homo sapiens) (P22303 whole entry, looked up): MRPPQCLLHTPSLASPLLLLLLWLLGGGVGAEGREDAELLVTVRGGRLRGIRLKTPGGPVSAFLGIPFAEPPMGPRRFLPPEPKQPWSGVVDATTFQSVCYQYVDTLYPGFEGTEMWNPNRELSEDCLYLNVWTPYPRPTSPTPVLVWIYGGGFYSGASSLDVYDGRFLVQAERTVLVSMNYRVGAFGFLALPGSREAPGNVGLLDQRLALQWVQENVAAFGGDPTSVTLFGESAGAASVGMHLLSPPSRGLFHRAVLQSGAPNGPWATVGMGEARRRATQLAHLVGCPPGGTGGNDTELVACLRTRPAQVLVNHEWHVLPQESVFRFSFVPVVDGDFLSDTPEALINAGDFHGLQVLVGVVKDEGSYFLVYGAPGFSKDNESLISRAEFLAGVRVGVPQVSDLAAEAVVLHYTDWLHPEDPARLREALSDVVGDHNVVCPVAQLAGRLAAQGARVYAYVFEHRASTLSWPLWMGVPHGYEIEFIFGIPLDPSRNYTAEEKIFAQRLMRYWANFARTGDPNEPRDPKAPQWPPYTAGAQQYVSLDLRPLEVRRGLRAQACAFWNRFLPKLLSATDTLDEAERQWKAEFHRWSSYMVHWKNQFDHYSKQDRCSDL

Consider `O=P(O)(NN1CCCCC1)Oc1ccccc1`, for which the Ratio IC50 is 4.
